Experimental data published in US6581606B2, “Method, apparatus and system for use in treating patient with a drug having an antineoplastic effect to optimize therapy and prevent an adverse drug response” (The Rx Files Corporation, priority 1999, dated 2003).

Settings: human, in vivo
Protocol: A current dose of Taxol (paclitaxel) is 375 mg.
In this case, the prescriber would use the following information for the patient receiving Taxol: Current Dose 375 mg; Current Marker 660 (a unitless marker indicative of the current platelet count); Desired Marker 1,200 (a unitless marker indicative of where the prescriber wants to see the platelet count raised to); Previous Marker 640 (a unitless marker indicative of the patient's previous ANC).

Previous Marker (patient's previous ANC): 640
Structure (SMILES): CC(=O)O[C@H]1C(=O)[C@@]2(C)[C@H]([C@H](OC(=O)c3ccccc3)[C@]3(O)C[C@H](OC(=O)[C@H](O)[C@@H](NC(=O)c4ccccc4)c4ccccc4)C(C)=C1C3(C)C)[C@]1(OC(C)=O)CO[C@@H]1C[C@@H]2O [Taxol, paclitaxel]
